# Laboratory results taken from patent publication US20200338045A1, “ISOINDOLINE COMPOSITIONS AND METHODS FOR TREATING NEURODEGENERATIVE DISEASE” (priority 2017, published 2020).
# Where two headings read alike, the source gives them in different places. Marks after values point to notes of the source that are not given here.
# Experiment: Phase 1 multiple ascending dose (MAD) plasma pharmacokinetics
# Type: in vivo, human
# Settings: for Cmax / AUC(0-t) / Tmax / half-life: human, plasma, oral; for AUC(0-t): read-out: AUC0-24h (mean)
# Experimental: In Part B, healthy young subjects in each cohort received the same dose once daily for 14 days after overnight fasting. Cohort dosing started at 280 mg, followed by 560 mg and 840 mg in subsequent cohorts. In each cohort, eight subjects received drug and two received placebo. A fourth cohort of healthy elderly subjects (≥65 years old) received a 560 mg dose vs. placebo daily for 14 days (seven active, two placebo).
# In Part A, blood draws for assessment of PK parameters occurred pre-dose and at 15, 30, 45, 60, and 90 minutes post dose as well as at 2, 3, 4, 8, 12, 24, 36, and 48 hours post dose. […] In Part B, blood samples for plasma PK analysis were taken on Day 1 at pre-dose and at 2 hours post-dose, on Day 3 at pre-dose and at 15, 30 and 45 minutes and 1, 2, 3, 4, 8, 12 and 24 hours post-dose, on Days 4, 6, 8 and 10 at pre-dose and at 1.5 hours post-dose and following the final dose on Day 14 at pre-dose and 15, 30 and 45 minutes and 1, 2, 4, 8, 12, 24, 36 and 48 hours post-dose.
# This was assessed by analysis of variance (ANOVA) of log-transformed Cmax, AUC0-24, AUC0-48, and/or AUC0-inf, using a model with factors for treatment (fed status or age [young vs. elderly] status) and subject within sequence. Treatment mean differences and 90% confidence intervals of the log transformed PK parameters were back-transformed, to present the geometric least squares means ratios and 90% confidence limits.
# [1] = 560 mg daily, Day 14 (steady state)
# [2] = 560 mg daily, day 3, geometric least-squares mean
# [3] = 280 mg, 280 mg QD, Day 3, age up to 64 years (n = 8)
# [4] = 280 mg, 280 mg QD, Day 14, age up to 64 years (n = 8)
# [5] = 560 mg, 560 mg QD, Day 3, age at least 65 years (n = 7)
# [6] = 560 mg, 560 mg QD, Day 3, age up to 64 years (n = 8)
# [7] = 560 mg, 560 mg QD, Day 14, age at least 65 years (n = 7)
# [8] = 560 mg, 560 mg QD, Day 14, age up to 64 years (n = 8)
# [9] = 840 mg, 840 mg QD, Day 3, age up to 64 years (n = 7)
# [10] = 840 mg, 840 mg QD, Day 14, age up to 64 years (n = 7)
smiles,measurement,setting,value
CC(C)(C)Oc1cc(CCC(C)(C)N2Cc3ccc(S(C)(=O)=O)cc3C2)ccc1O [CT1812],CLss/F (mean),"280 mg QD, Day 14, age up to 64 years (n = 8), unit assumed",387 L/h
same,CLss/F (mean),"560 mg QD, Day 14, age at least 65 years, n = 7",169^‡‡
same,CLss/F (mean),"560 mg QD, Day 14, age up to 64 years (n = 8), unit assumed",296 L/h
same,"AUC0-24h, aged cohort vs younger subjects",[1],1.5 times
same,"Cmax, aged cohort vs younger subjects",[1],1.6 times
same,"AUC0-24h, aged cohort vs subjects under 64 years",[2],~1.34 times
same,"Cmax, aged cohort vs subjects under 64 years",[2],approximately 1.7 times
same,CLss/F (mean),"840 mg QD, Day 14, age up to 64 years, n = 7",212^‡‡
same,Cmax and AUC / plasma concentration vs dose,MAD 280 to 840 mg,slightly greater than dose proportionally
same,accumulation with repeat dosing,Q.D. over 14 days,minimal accumulation
same,Cmax,[3],238 ng/mL
same,AUC(0-t),[3],851 ng·h/mL
same,Tmax,"280 mg, 280 mg QD, Day 3, age up to 64 years (n = 8), read-out: Tmax (median)",1.5 h
same,half-life,"280 mg, 280 mg QD, Day 3, age up to 64 years, n = 6, over max 24 hours post dose, read-out: t1/2 (mean) (converted)",8.97 h
same,Cmax,[4],431 ng/mL
same,AUC(0-t),[4],1060 ng·h/mL
same,Tmax,"280 mg, 280 mg QD, Day 14, age up to 64 years (n = 8), read-out: Tmax (median)",0.88 h
same,half-life,"280 mg, 280 mg QD, Day 14, age up to 64 years (n = 8), read-out: t1/2 (mean) (converted)",12 h
same,Cmax,[5],567 ng/mL
same,AUC(0-t),[5],3330 ng·h/mL
same,Tmax,"560 mg, 560 mg QD, Day 3, age at least 65 years (n = 7), read-out: Tmax (median)",2 h
same,half-life,"560 mg, 560 mg QD, Day 3, age at least 65 years, n = 4, over max 24 hours post dose, read-out: t1/2 (mean) (converted)",8.83 h
same,Cmax,[6],407 ng/mL
same,AUC(0-t),[6],1940 ng·h/mL
same,Tmax,"560 mg, 560 mg QD, Day 3, age up to 64 years (n = 8), read-out: Tmax (median)",2 h
same,half-life,"560 mg, 560 mg QD, Day 3, age up to 64 years, n = 2, over max 24 hours post dose, read-out: t1/2 (mean) (converted)",8.56 h
same,Cmax,[7],853 ng/mL
same,AUC(0-t),[7],4450 ng·h/mL
same,Tmax,"560 mg, 560 mg QD, Day 14, age at least 65 years (n = 7), read-out: Tmax (median)",1 h
same,half-life,"560 mg, 560 mg QD, Day 14, age at least 65 years (n = 7), read-out: t1/2 (mean) (converted)",12.8 h
same,Cmax,[8],651 ng/mL
same,AUC(0-t),[8],2810 ng·h/mL
same,Tmax,"560 mg, 560 mg QD, Day 14, age up to 64 years (n = 8), read-out: Tmax (median)",2 h
same,half-life,"560 mg, 560 mg QD, Day 14, age up to 64 years (n = 8), read-out: t1/2 (mean) (converted)",12.3 h
same,Cmax,[9],813 ng/mL
same,AUC(0-t),[9],3610 ng·h/mL
same,Tmax,"840 mg, 840 mg QD, Day 3, age up to 64 years (n = 7), read-out: Tmax (median)",2 h
same,half-life,"840 mg, 840 mg QD, Day 3, age up to 64 years, n = 5, over max 24 hours post dose, read-out: t1/2 (mean) (converted)",9.39 h
same,Cmax,[10],991 ng/mL
same,AUC(0-t),[10],4990 ng·h/mL
same,Tmax,"840 mg, 840 mg QD, Day 14, age up to 64 years (n = 7), read-out: Tmax (median)",2 h
same,half-life,"840 mg, 840 mg QD, Day 14, age up to 64 years, n = 6, read-out: t1/2 (mean) (converted)",8.93 h
same,half-life,"MAD, read-out: average terminal half-life at steady state (converted)",~12 h
same,Tmax,"part B (MAD), 280-840 mg, read-out: Tmax in plasma, range over doses",0.88 to 2 h
